This assay has as its target human adenosine A2a receptor (Homo sapiens (Human), UniProt P29274). Description: A2a receptor binding affinity, [3H]-NECA radioligand binding test. Particulars: [3H]-NECA 37 nM; membrane from HEK-293 cells transfected with human adenosine A2a receptor. In short, it runs like this:
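Membranes from HEK-293 cells expressing human A2a receptor were incubated with [3H]-NECA (final 37 nM) and compound for 1 h at room temperature in 50 mM Tris, 10 mM MgCl2, 1 mM EDTA, pH 7.4. Bound ligand was filtered on PEI-coated plates and counted by scintillation to derive IC50 (μM).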

pIC50: −log10 of the molar value.

human adenosine A2a receptor, sequence (P29274 whole entry): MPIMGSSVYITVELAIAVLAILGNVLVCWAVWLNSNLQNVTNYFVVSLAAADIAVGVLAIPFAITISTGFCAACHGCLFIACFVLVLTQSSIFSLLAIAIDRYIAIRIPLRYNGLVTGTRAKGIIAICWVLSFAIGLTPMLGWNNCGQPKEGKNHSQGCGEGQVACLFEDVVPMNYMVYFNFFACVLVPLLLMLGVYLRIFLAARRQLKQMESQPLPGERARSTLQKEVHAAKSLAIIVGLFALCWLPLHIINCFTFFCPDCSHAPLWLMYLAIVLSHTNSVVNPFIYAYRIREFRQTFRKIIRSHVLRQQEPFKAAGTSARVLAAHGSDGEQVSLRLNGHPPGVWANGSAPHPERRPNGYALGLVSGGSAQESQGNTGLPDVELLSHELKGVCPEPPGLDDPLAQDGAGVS

Regarding `Nc1nc(N[C@H](C(=O)N2CCN(c3ccc(F)cc3F)CC2)C2CCCC2)nc2nc(-c3ccco3)nn12` [Example 170, (S)-2-((7-amino-2-(furan-2-yl)-[1,2,4]triazolo[1,5-a][1,3,5]triazin-5-yl)amino)-2-cyclopentyl-1-(4-(2,4-difluorophenyl)piperazin-1-yl)ethan-1-one], the pIC50 is 9.00.
In the case of `Nc1nc(N[C@H](C(=O)N2CCN(CC(F)(F)F)CC2)C2CC2)nc2nc(-c3ccco3)nn12` [Example 216, (S)-2-((7-amino-2-(furan-2-yl)-[1,2,4]triazolo[1,5-a][1,3,5]triazin-5-yl)amino)-2-cyclopropyl-1-(4-(2,2,2-trifluoroethyl)piperazin-1-yl)ethan-1-one], the negative logarithm of the IC50 (pIC50) is 7.74.
The same measure for `C[C@H](Nc1nc(N)c2nc(-c3ccco3)sc2n1)C(=O)N1CCN(C(=O)CC(C)(C)O)CC1` [Example 340, 1-(4-((7-amino-2-(furan-2-yl)thiazolo[5,4-d]pyrimidin-5-yl)-L-alanyl)piperazin-1-yl)-3-hydroxy-3-methylbutan-1-one]: 7.13.
Next, `CC[C@H](Nc1nc(N)n2nc(-c3ccco3)nc2n1)C(=O)N1CCN(CC(F)(F)C(F)F)CC1` [Example 358, (S)-2-((7-amino-2-(furan-2-yl)-[1,2,4]triazolo[1,5-a][1,3,5]triazin-5-yl)amino)-1-(4-(2,2,3,3-tetrafluoropropyl)piperazin-1-yl)butan-1-one]: 8.00.
The molecule `C[C@H](Nc1nc(N)n2nc(-c3ccco3)nc2n1)C(=O)N1CCN(CC(C)(C)O)CC1` [Example 349, (S)-2-((7-amino-2-(furan-2-yl)-[1,2,4]triazolo[1,5-a][1,3,5]triazin-5-yl)amino)-1-(4-(2-hydroxy-2-methylpropyl)piperazin-1-yl)propan-1-one] had a pIC50 of 7.91.
Next, `CCC(C)[C@H](Nc1nc(N)n2nc(-c3ccco3)nc2n1)C(=O)N1CCN(c2ccc(F)cc2F)CC1` (stereo partly drawn) [Example 166, (2S)-2-((7-amino-2-(furan-2-yl)-[1,2,4]triazolo[1,5-a][1,3,5]triazin-5-yl)amino)-1-(4-(2,4-difluorophenyl)piperazin-1-yl)-3-methylpentan-1-one]: 10.10.
The same measure for `CC(C)[C@H](Nc1nc(N)n2nc(-c3ccco3)nc2n1)C(=O)N1CCN(Cc2ccc(F)cc2F)CC1` [Example 57, (S)-2-((7-amino-2-(furan-2-yl)-[1,2,4]triazolo[1,5-a][1,3,5]triazin-5-yl)amino)-1-(4-(2,4-difluorobenzyl)piperazin-1-yl)-3-methylbutan-1-one]: 8.15; for `C[C@@H]1CN(CC(F)(F)F)CCN1C(=O)[C@@H]1CCCN1c1nc(N)n2nc(-c3ccco3)nc2n1` [Example 205, ((S)-1-(7-amino-2-(furan-2-yl)-[1,2,4]triazolo[1,5-a][1,3,5]triazin-5-yl)pyrrolidin-2-yl)((R)-2-methyl-4-(2,2,2-trifluoroethyl)piperazin-1-yl)methanone]: 8.15.
Next, `CC(C)(O)CC(=O)N1CCN(C(=O)[C@@H]2CCCN2c2nc(N)c3nc(-c4ccco4)oc3n2)CC1` [Example 263, 1-(4-((7-amino-2-(furan-2-yl)oxazolo[5,4-d]pyrimidin-5-yl)-L-prolyl)piperazin-1-yl)-3-hydroxy-3-methylbutan-1-one]: 7.60; `COCCN1CCN(C(=O)[C@@H](Nc2nc(N)n3nc(-c4ccco4)nc3n2)C2CCCCC2)CC1` [Example 188, (S)-2-((7-amino-2-(furan-2-yl)-[1,2,4]triazolo[1,5-a][1,3,5]triazin-5-yl)amino)-2-cyclohexyl-1-(4-(2-methoxyethyl)piperazin-1-yl)ethan-1-one]: 8.00.
On to `CN1CCN(c2cccc(C(=O)N3CCN(C(=O)[C@@H]4CCCN4c4nc(N)n5nc(-c6ccco6)nc5n4)CC3)c2)CC1` [Example 82, (4-((7-amino-2-(furan-2-yl)-[1,2,4]triazolo[1,5-a][1,3,5]triazin-5-yl)-L-prolyl)piperazin-1-yl)(3-(4-methylpiperazin-1-yl)phenyl)methanone], for which the pIC50 was 8.22.
Next, `CC(C)S(=O)(=O)N1CCN(C(=O)[C@@H]2CCCN2c2nc(N)n3nc(-c4ccco4)nc3n2)CC1` [Example 71, (S)-(1-(7-amino-2-(furan-2-yl)-[1,2,4]triazolo[1,5-a][1,3,5]triazin-5-yl)pyrrolidin-2-yl)(4-(isopropylsulfonyl)piperazin-1-yl)methanone]: 8.00; `Nc1nc(N2CC[C@H]2C(=O)N2CCC(C3CCN(CC(F)(F)F)CC3)CC2)cc2nc(-c3ccco3)nn12` [Example 377, (S)-(1-(5-amino-2-(furan-2-yl)-[1,2,4]triazolo[1,5-c]pyrimidin-7-yl)azetidin-2-yl)(1′-(2,2,2-trifluoroethyl)-[4,4′-bipiperidin]-1-yl)methanone]: 10.00.
The same measure for `Nc1nc(N2CCC[C@H]2C(=O)N2CCC3(CC2)CN(CC(F)(F)F)C3)nc2nc(-c3ccco3)nn12` [Example 362, (S)-(1-(7-amino-2-(furan-2-yl)-[1,2,4]triazolo[1,5-a][1,3,5]triazin-5-yl)pyrrolidin-2-yl)(2-(2,2,2-trifluoroethyl)-2,7-diazaspiro[3.5]nonan-7-yl)methanone]: 7.52.
Next, `CCC(O)(CC)CN1CCN(C(=O)[C@@H]2CCN2c2nc(N)n3nc(-c4ccco4)nc3n2)CC1` [Example 347, (S)-(1-(7-amino-2-(furan-2-yl)-[1,2,4]triazolo[1,5-a][1,3,5]triazin-5-yl)azetidin-2-yl)(4-(2-ethyl-2-hydroxybutyl)piperazin-1-yl)methanone]: 7.77; `C[C@H](Nc1nc(N)n2nc(-c3ccco3)nc2n1)C(=O)N1CCN(Cc2ccccc2F)CC1` [Example 22, (S)-2-((7-amino-2-(furan-2-yl)-[1,2,4]triazolo[1,5-a][1,3,5]triazin-5-yl)amino)-1-(4-(2-fluorobenzyl)piperazin-1-yl)propan-1-one]: 7.96.
Turning to `COCCN1CCC(C2CCN(C(=O)[C@@H]3CCN3c3cc4nc(-c5ccco5)nn4c(N)n3)CC2)CC1` [Example 380, (S)-(1-(5-amino-2-(furan-2-yl)-[1,2,4]triazolo[1,5-c]pyrimidin-7-yl)azetidin-2-yl)(1′-(2-methoxyethyl)-[4,4′-bipiperidin]-1-yl)methanone], the pIC50 is 8.30.
`CC(C)NC(=O)N1CCN(C(=O)[C@@H]2CCCN2c2nc(N)n3nc(-c4ccco4)nc3n2)CC1` [Example 116, 4-((7-amino-2-(furan-2-yl)-[1,2,4]triazolo[1,5-a][1,3,5]triazin-5-yl)-L-prolyl)-N-isopropylpiperazin-1-carboxamide] had a pIC50 of 7.96. Against the preceding molecule, the pIC50 is 0.34 log units lower.
The same measure for `Nc1nc(N2CCC[C@H]2C(=O)N2CCN(c3ncccc3C(F)(F)F)CC2)nc2nc(-c3ccco3)nn12` [Example 124, (S)-(1-(7-amino-2-(furan-2-yl)-[1,2,4]triazolo[1,5-a][1,3,5]triazin-5-yl)pyrrolidin-2-yl)(4-(3-(trifluoromethyl)pyridin-2-yl)piperazin-1-yl)methanone]: 8.70.
For `Cc1ccc(-c2nc3nc(N4CC[C@H]4C(=O)N4CCN(Cc5ccccc5)CC4)nc(N)n3n2)o1` [Example 218, (S)-(1-(7-amino-2-(5-methylfuran-2-yl)-[1,2,4]triazolo[1,5-a][1,3,5]triazin-5-yl)azetidin-2-yl)(4-benzylpiperazin-1-yl)methanone], the negative logarithm of the IC50 (pIC50) is 8.00.
Next, `Cc1ccc(-c2nc3nc(N4CCC[C@H]4C(=O)N4CCN(CC(F)F)CC4)nc(N)n3n2)o1` [Example 297, (S)-(1-(7-amino-2-(5-methylfuran-2-yl)-[1,2,4]triazolo[1,5-a][1,3,5]triazin-5-yl)pyrrolidin-2-yl)(4-(2,2-difluoroethyl)piperazin-1-yl)methanone]: 7.82.
Next, `Nc1nc(N[C@H](C(=O)N2CCN(c3ccc(F)cc3F)CC2)C2CCCCC2)nc2nc(-c3ccco3)nn12` [Example 11, (S)-2-((7-amino-2-(furan-2-yl)-[1,2,4]triazolo[1,5-a][1,3,5]triazin-5-yl)amino)-2-cyclohexyl-1-(4-(2,4-difluorophenyl)piperazin-1-yl)ethan-1-one]: 10.00; `COCCN1CCC(C2CCN(C(=O)[C@@H]3CCN3c3nc(N)n4nc(-c5ccco5)nc4n3)CC2)CC1` [Example 329, (S)-(1-(7-amino-2-(furan-2-yl)-[1,2,4]triazolo[1,5-a][1,3,5]triazin-5-yl)azetidin-2-yl)(1′-(2-methoxyethyl)-[4,4′-bipiperidin]-1-yl)methanone]: 7.59; `Nc1nc(N2CCC[C@H]2C(=O)N2CCN(c3ccc(F)cc3)C(=O)C2)nc2nc(-c3ccco3)nn12` [Example 236, 4-((7-amino-2-(furan-2-yl)-[1,2,4]triazolo[1,5-a][1,3,5]triazin-5-yl)-L-prolyl)-1-(4-fluorophenyl)piperazin-2-one]: 8.70.
The same measure for `Cn1cc(N2CCN(C(=O)[C@@H]3CCCN3c3nc(N)n4nc(-c5ccco5)nc4n3)CC2)cn1` [Example 321, (S)-(1-(7-amino-2-(furan-2-yl)-[1,2,4]triazolo[1,5-a][1,3,5]triazin-5-yl)pyrrolidin-2-yl)(4-(1-methyl-1H-pyrazol-4-yl)piperazin-1-yl)methanone]: 8.70; for `Nc1nc(N2CCC[C@H]2C(=O)N2CCN(C(=O)C3(C(F)(F)F)CCCCC3)CC2)nc2nc(-c3ccco3)nn12` [Example 77]: 9.40.
The molecule `Cc1ccc(-c2nc3nc(N4CC[C@H]4C(=O)N4CCN(C(=O)CC(C)(C)O)CC4)nc(N)n3n2)o1` [Example 315, (S)-1-(4-(1-(7-amino-2-(5-methylfuran-2-yl)-[1,2,4]triazolo[1,5-a][1,3,5]triazin-5-yl)azetidine-2-carbonyl)piperazin-1-yl)-3-hydroxy-3-methylbutan-1-one] had a pIC50 of 7.80. Compared with the last molecule, the pIC50 is 1.60 log units lower.

The term pIC50 denotes the negative decadic logarithm of the IC50, by convention in mol/L. Low readings indicate a high IC50, high ones a low IC50.
